Measured values taken from patent publication US20060264411A1, “Control of biofilm formation” (priority 2005, published 2006).

How the values were obtained:
[1] = test system: E. coli clinical strain UTI89; experiment: Biofilm formation inhibition, crystal violet, E. coli clinical strain UTI89; type: cell-based; conditions: Escherichia coli, 20 ug/ml, read-out: inhibited biofilm formation
Protocol: (§1) Biofilm inhibition experiments were conducted using an assay adapted from the reported protocol described in Pratt and Kolter, 1998, Molecular Microbiology, 30: 285-293; Li et al., 2001, J. Bacteriol., 183: 897-908. E. coli clinical strain UTI89 was grown in LB in 96 well plates at room temperature for one or two days without shaking. E. coli laboratory strain JM109 was grown in LB plus 0.2% glucose in 96 well plates at room temperature for one day without shaking. To quantify the biofilm mass, the suspension culture was poured out and the biofilm was washed three times with water. The biofilm was stained with 0.1% crystal violet for 20 minutes. The plates were then washed three times with water. OD reading at 540 nm was measured to quantify the biofilm mass at the bottom of the wells. Then 95% ethanol was added to dissolve the dye at the bottom and on the wall and the OD reading at 540 nm was measured to quantify the total biofilm mass. To study the overall effect of the compounds (3.6 mg/mL in 100% ethanol as stock solution), it was added with the inoculation and a time course of biofilm mass was measured. Appropriate amounts of 100% ethanol were added to each sample to eliminate the effect of solvent. Each condition had 3-4 replicates on each plate and was performed over multiple days.

[2] = test system: P. aeruginosa strain PAO1; experiment: Rotating disk reactor (RDR) biofilm test with and without tobramycin; type: cell-based, Pseudomonas aeruginosa; conditions: test compound 100 μg/ml 24 h; for Test Compound, log10 CFU: no tobramycin; for Tobramycin and Test Compound, log10 CFU: then tobramycin 100 μg/ml 2 h
Protocol: Biofilm formation of P. aeruginosa was evaluated using a standardized biofilm method with a rotating disk reactor (RDR). This method provides a model resembling the formation of biofilms in cystic fibrosis patients. The rotating disk reactor consists of a one-liter glass beaker fitted with a drain spout. The bottom of the vessel contains a magnetically driven rotor with six 1.27 cm diameter coupons constructed from polystyrene. The rotor consists of a star-head magnetic stir bar upon which a disk was affixed to hold the coupons. The vessel with the stir bar was placed on a stir plate and rotated to provide fluid shear. A nutrient solution (AB Trace Medium with 0.3 mM glucose, see Table 1 below for composition) was added through a stopper in the top of the reactor at a flow rate of 5 ml/min. The reactor volume was approximately 180 ml and varied slightly between reactors depending on the placement of the drain spout and the rotational speed of the rotor. At a volume of 180 ml, the residence time of the reactors was 36 minutes. The reactors were operated at room temperature (c.a. 26° C.).
For each test, two RDRs were operated in parallel with one receiving test compound and the other serving as an untreated control. The RDRs were sterilized by autoclave, then filled with sterile medium and inoculated with P. aeruginosa strain PAO1. The reactors were then incubated at room temperature in batch mode (no medium flow) for a period of 24 hours, after which the flow was initiated for a further 24 hour incubation. Test compounds were dissolved in 10 ml ethanol to achieve a concentration of 1.8 mg/ml. After the 48 hours of biofilm development described above, the 10 ml of ethanol containing the test compounds were added to the reactor to achieve a final concentration of approximately 50, 100, or 200 μg/ml. Control reactors received 10 ml of ethanol. The reactors were then incubated for an additional 24 hours in batch (no flow) mode. After this incubation period, the six coupons were removed from each reactor and placed in 12-well polystyrene tissue culture plates with wells containing either 2 ml of a 100 μg/ml tobramycin solution or 2 ml of phosphate-buffered saline (PBS). These plates were incubated at room temperature for two hours. The coupons were then rinsed by three transfers to plates containing 2 ml of fresh PBS. For each two RDR reactors run in parallel, four sets of three coupons were obtained: one set with no test compound treatment and no tobramycin treatment, one set with no test compound treatment and tobramycin treatment, one set treated with a test compound treatment and no tobramycin treatment, and one set treated with a test compound treatment and tobramycin. After rinsing, one coupon of each set of three was stained with a LIVE/DEAD® BacLight™ Bacterial Viability Kit (Molecular Probes, Eugene Oreg.) and imaged using epifluorescent microscopy. The remaining two coupons were placed in 10 ml of PBS and sonicated for five minutes to remove and disperse biofilm cells. The resulting bacterial suspensions were then serially diluted in PBS and plated on tryptic soy agar plates for enumeration of culturable bacteria. The plates were incubated for 24 hours at 37° C. before colony forming units (CFU) were determined.
The results are averages from experiments performed on three separate days for each test compound. The values reported are as log10 CFU.

[3] = test system: E. coli clinical strain UTI89; experiment: Invasion of E. coli UTI89 into bladder epithelial cells; type: cell-based
Protocol: The effect of test compounds on bacterial invasion of E. coli clinical strain UTI89 was studied as described in Elsinghorst, et al. 1994, Methods Enzymol, 236:405-420; and Martinez et al., 2000, EMBO J., 19:2803-2812. Epithelial bladder cells were grown in plates. Asiatic acid, corosolic acid, or ursolic acid were added at concentrations of 10 μg/ml, 20 μg/ml, or 40 μg/ml to bacteria and epithelial cells for approximately 5, 15, 30, or 60 minutes with approximately 10^7 CFU of E. coli. Binding was assessed at time zero and invasion was assessed at approximately 5, 15, 30, or 60 minutes from completing the mixture of compound, bacteria, and epithelial cells. As a control ethanol was added to cells to a final concentration of 0.1%. The effect of bacterial viability and bacterial adherence during the infection period was evaluated according to the methods described in Martinez et al., 2000, EMBO J., 19:2803-2812.

[4] = test system: E. coli UTI89[pCOMGFP]; experiment: Biofilm pods / intracellular bacterial communities (IBC) in mouse bladders, confocal microscopy; type: in vivo, C3H/HeN mice; conditions: for reduction in biofilm pods or intracellular bacterial communities (IBC) in the bladders of mice as compared to the controls: experiment 1: 40 μg/ml intravesical, 30 min pre-incubation, 10^8 CFU, five hours
Protocol: The experiment was performed using the procedures described in Justice, S. et al., Differentiation and development pathways of uropathogenic Escherichia coli in urinary tract pathogenesis.PNAS, 2004, 101(5), p. 1333-1338. Briefly, E. coli UTI89[pCOMGFP] was prepared after retrieval from frozen stocks by inoculating in LB medium statically for approximately 20 hours. Cells were harvested and suspended in 1 ml of PBS. Cells were diluted to achieve approximately a 10^8 CFU or 10^7 CFU input into C3H/HeN mice (2 mice per group).
Mice were deprived of water for approximately two hours. In experiment 1, all mice were anesthetized with 0.15 cc ketamine cocktail. In experiment 2, all mice were anesthetized with isofluorane. In experiment 1, urine was dispelled from the bladders and approximately 40 μg/ml of test compound or an appropriate amount of ethanol as control was introduced into the bladders via catheterization of the urethra using a tubing coated tuberculin syringe. 30 minutes was allowed to elapse. In experiment 2, bladders were not pre-incubated with test compounds. Bladders were then expelled and an inoculum of 10^8 CFU (Experiment 1) or 10^7 CFU (Experiment 2) of E. coli containing 40 μg/ml of test compound or equivalent amount of ethanol as controls were introduced into the bladders as indicated above.
In experiment 1 five hours elapsed and in experiment 2 six hours elapsed, and then mice were anesthetized and sacrificed. The bladders were removed, bisected, stretched, and fixed in 3% paraformaldehyde for 1 hour at room temperature. Bladders were then permeabilized in 0.01% Triton/PBS for 10 minutes and counter stained with TOPRO3 (Molecular Probes) for 10 minutes for visualization by confocal microscopy. Bladders were mounted on Prolong antifade (Molecular Probes).

[5] = test system: cysB gene; conditions: examples of U.S. patent application Ser. No. 11/085,279; cited from earlier work
[6] = test system: E. coli laboratory strain JM109; experiment: Biofilm formation inhibition, crystal violet, E. coli laboratory strain JM109; type: cell-based; conditions: Escherichia coli, read-out: inhibited biofilm formation as compared to the controls
Protocol: as §1

[7] = Bladder concentrations in rats after oral dose; conditions: rat, in vivo; rats; 50 mg/kg oral, single bolus in 50% Labrasol; at 24 hours; read-out: concentration in the bladder
Protocol: Pharmacokinetic studies of asiatic acid and madecassic acid in rats were performed separately. Asiatic acid and madecassic acid were evaluated at 50 mg/kg (oral). Two animals were assigned to each group. Prior to dosing, a baseline blood sample was taken from each animal. At time zero, asiatic acid and madecassic acid, a single bolus dose in 50% Labrasol (Gattefosse) was given to each animal. Bladders were analyzed at 24 hours. Concentrations of both asiatic acid and madecassic acid in the bladder were approximately 30 μg/g at 24 hours.

[8] = test system: bacterial invasion; experiment: Bacterial invasion statement of Example 9; conditions: within 15 minutes of administration
[9] = 40 μg/ml, 60 minutes, separate experiments (n=4-7)

Row | SMILES | inhibition at 20 µg/mL [1] [%] | Test Compound, log10 CFU [2] [log10 CFU] | Tobramycin and Test Compound, log10 CFU [2] [log10 CFU] | reduced invasion of E. coli into bladder epithelial cells as compared to the controls ([3]; 20 μg/ml, 60 minutes, separate experiments (n=4)) [%] | reduced invasion of E. coli into bladder epithelial cells as compared to the controls ([3]; 40 μg/ml, 5 minutes, time series, triplicate) [%] | reduced invasion of E. coli into bladder epithelial cells as compared to the controls ([3]; 40 μg/ml, 15 minutes, time series, triplicate) [%] | reduced invasion of E. coli into bladder epithelial cells as compared to the controls [3, 9] [%] | reduced invasion of E. coli into bladder epithelial cells as compared to the controls ([3]; 40 μg/ml, 60 minutes, time series, triplicate) [%] | reduction in biofilm pods or intracellular bacterial communities (IBC) in the bladders of mice as compared to the controls [4] [%] | reduction in large biofilm pods or large IBC in the bladders of mice as compared to the controls ([4]; experiment 2: 40 μg/ml with inoculum, no pre-incubation, 10^7 CFU, six hours) [%] | appearance of E. coli in mouse bladder, confocal microscopy image (FIG. 3) ([4]; mouse inoculated with E. coli UTI89 and compound, control shows an IBC (FIG. 2)) | expression of a cysB gene in E. coli [5] | inhibition at 5 µg/mL ([6]; JM 109, 5 ug/ml) [%] | inhibition at 10 µg/mL ([6]; JM 109, 10 ug/ml) [%] | concentration at 24 h [7] [ng/g] | bacterial invasion (in words) [8]
1 | C[C@H]1[C@H](C)CC[C@]2(C(=O)O)CC[C@]3(C)C(=CC[C@@H]4[C@@]5(C)C[C@@H](O)[C@H](O)C(C)(C)[C@@H]5CC[C@]43C)[C@H]12 [Corosolic acid, corosolic acid] | ~85 | 7.3 | 4.2 | 65 | 10 | 70 | 90 | 90 | 94 | ~60 | small collection of E coli | – | – | – | – | –
2 | C[C@H]1[C@H](C)CC[C@]2(C(=O)O)CC[C@]3(C)C(=CC[C@@H]4[C@@]5(C)CC[C@H](O)C(C)(C)[C@@H]5CC[C@]43C)[C@H]12 [ursolic acid] | – | – | – | – | – | – | 76 | – | 70 | – | – | modulate the expression of a cysB gene | – | – | – | –
3 | C[C@H]1[C@H](C)CC[C@]2(C(=O)O)CC[C@]3(C)C(=CC[C@@H]4[C@@]5(C)C[C@@H](O)[C@H](O)[C@@](C)(CO)[C@@H]5[C@H](O)C[C@]43C)[C@H]12 [Madecassic acid, madecassic acid] | – | 7.5 | 5.5 | – | – | – | – | – | – | – | – | – | ~60 | ~75 | ~30000 | significantly reduced bacterial invasion
